From patent US20100029657A1, “Bridged, Bicyclic Heterocyclic or Spiro Bicyclic Heterocyclic Derivatives of Pyrazolo[1, 5-A]Pyrimidines, Methods for Preparation and Uses Thereof” (Wyeth, priority 2008, published 2010)

Molecular target: T1, Flag/GST-tagged recombinant human B-Raf (Homo sapiens, UniProt P15056)
T1 construct: Flag; GST; made in house; host or cells: Sf9 insect cells (B-Raf); E. coli (MEK1-GST)
Experiment: B-Raf kinase assay (phosphorylation of GST-MEK1, phospho-MEK1 antibody/Europium detection)
Type: biochemical
Conditions: B-Raf IC50 Data for compounds of Formula A; read-out: Mean IC50
Method: B-Raf1 Kinase Assay Procedure: B-Raf-1 is used to phosphorylate GST-MEK1.
• 1. Assay Dilution Buffer (ADB): 20 mM MOPS, pH 7.2, 25 mM β-glycerol phosphate, 5 mM EGTA, 1 mM sodium orthovanadate, 1 mM dithiothreitol, 0.01% Triton X-100. • 2. Magnesium/ATP Cocktail: ADB solution (minus Triton X-100) plus 200 μM cold ATP and 40 mM magnesium chloride. • 4. Active Kinase: Active B-Raf: Used at 0.2 nM per assay point. • 5. […] TBST—Tris (50 mM, pH 7.5), NaCl (150 mM), Tween-20 (0.05%) • 7. Anti-GST Ab (GE) • 8. Anti pMEK Ab (Upstate) • 9. Anti-rabbit Ab/Europium conjugate (Wallac).
B-Raf Assay Procedure: • 1. Added 25 μL of ADB containing B-Raf and Mek per assay (i.e. per well of a 96 well plate) • 2. Added 25 μL of 0.2 mM ATP and 40 mM magnesium chloride in Magnesuium/ATP Cocktail. • 3. Incubated for 45 minutes at RT with occasional shaking. • 4. Transferred this mixture to an anti-GST Ab coated 96 well plate (Nunc Immunosorb plates coated o/n with a-GST. Plate freshly washed 3×with TBS-T before use. • 5. Incubated o/n at […] in cold room. • 6. Washed 3× with TBST, ed Anti-Phospho MEK1 (1:1000, dilution depended upon lot) • 7. Incubated for 60 minutes at RT in a shaking incubator • 8. Washed 3× with TBST, add Anti-rabbit Ab/Europium conjugate (Wallac) (1:500, dilution depended upon lot) • 9. Incubated for 60 minutes at RT on a platform shaker. • 10. Washed plate 3× with TBS-T • 11. Added 100 μL of Wallac Delfia Enhancement Solution and agitated for 10 minutes. • 12. Read plates in Wallac Victor model Plate Reader. • 13.
The % inhibition was determined for each compound concentration.

T1 sequence (P15056 whole entry): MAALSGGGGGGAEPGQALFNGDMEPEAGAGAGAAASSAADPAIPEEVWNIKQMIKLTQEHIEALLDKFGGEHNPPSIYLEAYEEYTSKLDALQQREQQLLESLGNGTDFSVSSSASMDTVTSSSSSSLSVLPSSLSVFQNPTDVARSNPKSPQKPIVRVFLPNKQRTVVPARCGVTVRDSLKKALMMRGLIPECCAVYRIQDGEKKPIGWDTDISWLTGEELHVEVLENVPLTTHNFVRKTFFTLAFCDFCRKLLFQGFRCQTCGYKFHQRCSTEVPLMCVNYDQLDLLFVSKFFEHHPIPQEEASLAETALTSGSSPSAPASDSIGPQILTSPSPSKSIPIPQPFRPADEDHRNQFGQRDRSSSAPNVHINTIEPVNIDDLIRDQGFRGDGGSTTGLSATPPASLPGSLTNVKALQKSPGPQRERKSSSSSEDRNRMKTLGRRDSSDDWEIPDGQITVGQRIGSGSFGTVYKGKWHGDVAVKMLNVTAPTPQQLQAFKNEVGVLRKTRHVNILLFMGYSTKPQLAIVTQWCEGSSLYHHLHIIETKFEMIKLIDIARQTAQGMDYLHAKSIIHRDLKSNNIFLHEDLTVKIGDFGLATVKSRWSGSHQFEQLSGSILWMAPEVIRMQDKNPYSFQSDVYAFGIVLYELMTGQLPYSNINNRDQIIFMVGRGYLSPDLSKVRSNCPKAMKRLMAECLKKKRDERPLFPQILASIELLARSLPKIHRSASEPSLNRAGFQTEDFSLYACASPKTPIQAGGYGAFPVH

Compound | IC50
CN1C[C@@H]2C[C@H]1CN2c1ccc(-c2ccnc3c(-c4cccc5[nH]ncc45)c(-c4ccncc4)nn23)cc1 [Example 35, 3-(1H-indazol-4-yl)-7-(4-((1S,4S)-5-methyl-2,5-diazabicyclo[2.2.1]heptan-2-yl)phenyl)-2-(pyridin-4-yl)pyrazolo[1,5-a]pyrimidine] | 1.5 nM
COc1cccc(-c2c(-c3ccncc3)nn3c(-c4ccc(N5C[C@@H]6C[C@H]5CN6C)cc4)ccnc23)c1 [Example 36, 3-(3-Methoxyphenyl)-7-(4-((1S,4S)-5-methyl-2,5-diazabicyclo[2.2.1]heptan-2-yl)phenyl)-2-(pyridin-4-yl)pyrazolo[1,5-a]pyrimidine] | 8.2 nM
COc1cc(-c2c(-c3ccncc3)nn3c(-c4ccc(N5C[C@@H]6C[C@H]5CN6C)cc4)ccnc23)ccc1F [Example 37, 3-(4-Fluoro-3-methoxyphenyl)-7-(4-((1S,4S)-5-methyl-2,5-diazabicyclo[2.2.1]heptan-2-yl)phenyl)-2-(pyridin-4-yl)pyrazolo[1,5-a]pyrimidine] | 21 nM
CCN1C[C@@H]2C[C@H]1CN2c1ccc(-c2ccnc3c(-c4ccc(F)c(O)c4)c(-c4ccncc4)nn23)cc1 [Example 38, 5-(7-(4-((1S,4S)-5-Ethyl-2,5-diazabicyclo[2.2.1]heptan-2-yl)phenyl)-2-(pyridin-4-yl)pyrazolo[1,5-a]pyrimidin-3-yl)-2-fluorophenol] | 0.5 nM
CC(=O)N1C[C@@H]2C[C@H]1CN2c1ccc(-c2ccnc3c(-c4ccc(F)c(O)c4)c(-c4ccncc4)nn23)cc1 [Example 39, 1-((1S,4S)-5-(4-(3-(4-Fluoro-3-hydroxyphenyl)-2-(pyridin-4-yl)pyrazolo[1,5-a]pyrimidin-7-yl)phenyl)-2,5-diazabicyclo[2.2.1]heptan-2-yl)ethanone] | 0.5 nM
Cc1ccc(-c2c(-c3ccncc3)nn3c(-c4ccc(N5C[C@@H]6C[C@H]5CN6C)nc4)ccnc23)c2cn[nH]c12 [Example 40, 3-(7-Methyl-1H-indazol-4-yl)-7-(6-((1S,4S)-5-methyl-2,5-diazabicyclo[2.2.1]heptan-2-yl)pyridin-3-yl)-2-(pyridin-4-yl)pyrazolo[1,5-a]pyrimidine] | 0.7 nM
CN1C[C@@H]2C[C@H]1CN2c1ccc(-c2ccnc3c(-c4ccc(Cl)c5[nH]ncc45)c(-c4ccncc4)nn23)cn1 [Example 41, 3-(7-Chloro-1H-indazol-4-yl)-7-(6-((1S,4S)-5-methyl-2,5-diazabicyclo[2.2.1]heptan-2-yl)pyridin-3-yl)-2-(pyridin-4-yl)pyrazolo[1,5-a]pyrimidine] | < 0.3 nM
CN1C[C@@H]2C[C@H]1CN2c1ccc(-c2ccnc3c(-c4ccc(F)c5[nH]ncc45)c(-c4ccncc4)nn23)cn1 [Example 42, 3-(7-Fluoro-1H-indazol-4-yl)-7-(6-((1S,4S)-5-methyl-2,5-diazabicyclo[2.2.1]heptan-2-yl)pyridin-3-yl)-2-(pyridin-4-yl)pyrazolo[1,5-a]pyrimidine] | 0.4 nM
CN1C[C@@H]2C[C@H]1CN2c1ccc(-c2ccnc3c(-c4cccc(C(N)=O)c4)c(-c4ccncc4)nn23)cn1 [Example 43, 3-(7-(6-((1S,4S)-5-Methyl-2,5-diazabicyclo[2.2.1]heptan-2-yl)pyridin-3-yl)-2-(pyridin-4-yl)pyrazolo[1,5-a]pyrimidin-3-yl)benzamide] | 134 nM

Continued, values first:

IC50 | Compound
0.6 nM | Cc1cc(N2C[C@@H]3C[C@H]2CN3)ccc1-c1ccnc2c(-c3cccc4[nH]ncc34)c(-c3ccncc3)nn12 [Example 44, 7-(4-((1S,4S)-2,5-Diazabicyclo[2.2.1]heptan-2-yl)-2-methylphenyl)-3-(1H-indazol-4-yl)-2-(pyridin-4-yl)pyrazolo[1,5-a]pyrimidine]
< 0.3 nM | Cc1cc(N2C[C@@H]3C[C@H]2CN3C)ccc1-c1ccnc2c(-c3cccc4[nH]ncc34)c(-c3ccncc3)nn12 [Example 45, 3-(1H-Indazol-4-yl)-7-(2-methyl-4-((1S,4S)-5-methyl-2,5-diazabicyclo[2.2.1]heptan-2-yl)phenyl)-2-(pyridin-4-yl)pyrazolo[1,5-a]pyrimidine]
3.2 nM | Fc1ccc(-c2ccnc3c(-c4cccc5[nH]ncc45)c(-c4ccncc4)nn23)c(N2C[C@@H]3C[C@H]2CN3)c1 [Example 46, 7-(2-((1S,4S)-2,5-Diazabicyclo[2.2.1]heptan-2-yl)-4-fluorophenyl)-3-(1H-indazol-4-yl)-2-(pyridin-4-yl)pyrazolo[1,5-a]pyrimidine]
0.8 nM | CN1C[C@@H]2C[C@H]1CN2c1cc(F)ccc1-c1ccnc2c(-c3cccc4[nH]ncc34)c(-c3ccncc3)nn12 [Example 47, 7-(4-Fluoro-2-((1S,4S)-5-methyl-2,5-diazabicyclo[2.2.1]heptan-2-yl)phenyl)-3-(1H-indazol-4-yl)-2-(pyridin-4-yl)pyrazolo[1,5-a]pyrimidine]
> 1000 nM | COc1cc(-c2c(-c3ccncc3)nn3c(-c4ccc(F)cc4N4C[C@@H]5C[C@H]4CN5C(=O)OC(C)(C)C)ccnc23)ccc1Cl [Example 48, (1S,4S)-tert-Butyl 5-(2-(3-(4-chloro-3-methoxyphenyl)-2-(pyridin-4-yl)pyrazolo[1,5-a]pyrimidin-7-yl)-5-fluorophenyl)-2,5-diazabicyclo[2.2.1]-heptane-2-carboxylate]
255 nM | COc1cc(-c2c(-c3ccncc3)nn3c(-c4ccc(F)cc4N4C[C@@H]5C[C@H]4CN5)ccnc23)ccc1Cl [Example 49, 7-(2-((1S,4S)-2,5-Diazabicyclo[2.2.1]heptan-2-yl)-4-fluorophenyl)-3-(4-chloro-3-methoxyphenyl)-2-(pyridin-4-yl)pyrazolo[1,5-a]pyrimidine]
> 1000 nM | COc1cc(-c2c(-c3ccncc3)nn3c(-c4ccc(F)cc4N4C[C@@H]5C[C@H]4CN5C)ccnc23)ccc1Cl [Example 50, 3-(4-Chloro-3-methoxyphenyl)-7-(4-fluoro-2-((1S,4S)-5-methyl-2,5-diazabicyclo[2.2.1]heptan-2-yl)phenyl)-2-(pyridin-4-yl)pyrazolo[1,5-a]pyrimidine]
0.8 nM | c1cc(-c2c(-c3ccncc3)nn3c(-c4ccc(N5C[C@@H]6C[C@H]5CN6)cc4)ccnc23)c2cn[nH]c2c1 [Example 51, 7-(4-((1S,4S)-2,5-Diazabicyclo[2.2.1]heptan-2-yl)phenyl)-3-(1H-indazol-4-yl)-(pyridin-4-yl)pyrazolo[1,5-a]pyrimidine]
< 0.3 nM | Fc1cc(N2C[C@@H]3C[C@H]2CN3)ccc1-c1ccnc2c(-c3cccc4[nH]ncc34)c(-c3ccncc3)nn12 [Example 52, 7-(4-((1S,4S)-2,5-Diazabicyclo[2.2.1]heptan-2-yl)-2-fluorophenyl)-3-(1H-indazol-4-yl)-2-(pyridin-4-yl)pyrazolo[1,5-a]pyrimidine]
< 0.3 nM | CN1C[C@@H]2C[C@H]1CN2c1ccc(-c2ccnc3c(-c4cccc5[nH]ncc45)c(-c4ccncc4)nn23)c(F)c1 [Example 53, 7-(2-Fluoro-4-((1S,4S)-5-methyl-2,5-diazabicyclo[2.2.1]heptan-2-yl)phenyl)-3-(1H-indazol-4-yl)-2-(pyridin-4-yl)pyrazolo[1,5-a]pyrimidine]
150 nM | CN1C[C@@H]2C[C@H]1CN2c1ccc(-c2ccnc3c(-c4ccc(F)c(O)c4)c(-c4ccncc4)nn23)cc1 [Example 54, 2-fluoro-5-(7-(4-((1S,4S)-5-methyl-2,5-diazabicyclo[2.2.1]heptan-2-yl)phenyl)-2-(pyridin-4-yl)pyrazolo[1,5-a]pyrimidin-3-yl)phenol]
